Measurements from patent publication US20060019565A1, “Method for delivering biologically active substnces” (priority 2002, published 2006).

How the values were obtained:
[1] = Antimicrobial protection of treated cotton fibre
Experimental: (§1) II.5 A padding bath is prepared containing 20 g/l of compound (101) and is applied at 20-25° C. with a pick-up rate of 70-80% on cotton. After drying (65 to 15 s at 70-130° C.), the resulting fabric contains the latent menthol.
II.6 The same treatment is made on cotton using compound (102) in place of (101).
II.7 A cotton fabric is similarly treated with an aqueous formulation of compounds of formula (101) and (102).

[2] = Release of the hydroxyl compound by hydrolysis from a treated substrate (PAN fabric, cotton, paper); format: physicochemical; conditions: for release of the active hydroxyl compound upon hydrolysis: concentrated aqueous formulation sprayed on cellulosic substrate (paper, cotton), air-dried
Experimental: After the treatment with the aqueous solution of the ester compound a slow release of the biologically active hydroxyl compound on the substrate starts through hydrolysis. The velocity of this process can easily be controlled through pH and/or temperature variations.
II.1 A sample of 15 g polyacrylonitrile (PAN) fabric (Dralon 5-4301), pretreated with a commercial wetting agent (TINOVETIN® JU, supplied by Ciba Specialty Chemicals) at 60° C. during 10 min and rinsed with cold water, is fixed on a support material and in an exhaust dyeing machine of type Ahiba treated with the following composition: • 7.5 ml aqueous Na2SO4 solution (100 g/l) • 2.25 ml aqueous sodium acetate solution (100 g/A) • 2.25 ml 80% acetic acid • 233.5 ml water • 3.0 ml cationic retarder (TINEGAL® MR, Ciba Specialty Chemicals) (100 g/l) • 1.5 ml aqueous solution of compound of formula (101) (100 g/l)
The temperature is kept at 98° C. for 20 min; the pH of the bath after cooling to room temperature is 4.7. The sample of PAN fabric is rinsed with cold water and subsequently dried in the air. The resulting PAN fabric contains the latent menthol.
as §1
II.8 A concentrated aqueous formulation of compound (101) is sprayed on a cellulosic substrate (e.g. paper, cotton).

[3] = cotton treated with aqueous formulation of (101) and (102) together
[4] = cotton, padding bath 20 g/l, 20-25° C., pick-up 70-80%

Row | SMILES | antimicrobial protection ([1]; cotton padded with compound (102) alone) | antimicrobial protection [1, 3] | release of the active hydroxyl compound upon hydrolysis [2] | release of the active hydroxyl compound from treated fabric [2, 3] | release of the active hydroxyl compound from treated fabric [2, 4] | regeneration of menthol from treated fabric ([2]; PAN fabric, exhaust treatment 98° C. for 20 min, bath pH 4.7-5.2, velocity of release controlled by pH)
1 | CN(C)CC[N+](C)(C)CC(=O)Oc1cc(Cl)ccc1Oc1ccc(Cl)cc1Cl.[Cl-] [compound 102] | good antimicrobial protection over time | good antimicrobial protection over time | releases triclosan upon hydrolysis | slowly released | slowly released | –
2 | CC1CCC(C(C)C)C(OC(=O)C[N+](C)(C)CCN(C)C)C1.[Cl-] (stereo not drawn) [compound 101] | – | – | releases menthol upon hydrolysis | slowly released | gradually regenerated | gradually regenerated
